# In ChEMBL document CHEMBL5113460, “Discovery of dual inhibitors of topoisomerase I and Cyclooxygenase-2 for colon cancer therapy” (Eur J Med Chem, 2022):
# The source made the active and inactive calls. No cut-off for these calls is given here.
# Key:
# RKO [1] = assay: Antitumor activity against human RKO cells assessed as inhibition of cell proliferation incubated for 72 hrs by MTT assay; type: functional, cell-based
# HT-29 [2] = assay: Induction of apoptosis in human HT-29 cells assessed as increase in cleaved caspase-3 protein level at 2 to 8 uM incubated for 24 hrs by western blot analysis; type: functional, cell-based; settings: dose 2-8 µM
# RKO [3] = assay: Induction of apoptosis in human RKO cells assessed as early apoptotic cells at 3 uM incubated for 24 hr by Annexin-V-FITC/PI staining based flow cytometry (Rvb= 7.27%); type: functional
# HT-29 [4] = assay: Induction of apoptosis in human HT-29 cells assessed as early apoptotic cells at 8 uM incubated for 24 hr by Annexin-V-FITC/PI staining based flow cytometry (Rvb=6.25%); type: functional
# RKO [5] = assay: Induction of apoptosis in human RKO cells assessed as increase in cleaved caspase-3 protein level at 3 to 9 uM incubated for 24 hrs by western blot analysis; type: functional, cell-based; settings: dose 3-9 µM
# [6] = biological target: T1, DNA topoisomerase 1 (Homo sapiens) (UniProt P11387); assay: Inhibition of topoisomerase 1 (unknown origin) assessed as relaxation of supercoiled plasmid pBR322 DNA at 1 uM incubated for 45 mins by ethidium bromide staining based agarose gel electrophoresis
# T1 sequence (whole entry): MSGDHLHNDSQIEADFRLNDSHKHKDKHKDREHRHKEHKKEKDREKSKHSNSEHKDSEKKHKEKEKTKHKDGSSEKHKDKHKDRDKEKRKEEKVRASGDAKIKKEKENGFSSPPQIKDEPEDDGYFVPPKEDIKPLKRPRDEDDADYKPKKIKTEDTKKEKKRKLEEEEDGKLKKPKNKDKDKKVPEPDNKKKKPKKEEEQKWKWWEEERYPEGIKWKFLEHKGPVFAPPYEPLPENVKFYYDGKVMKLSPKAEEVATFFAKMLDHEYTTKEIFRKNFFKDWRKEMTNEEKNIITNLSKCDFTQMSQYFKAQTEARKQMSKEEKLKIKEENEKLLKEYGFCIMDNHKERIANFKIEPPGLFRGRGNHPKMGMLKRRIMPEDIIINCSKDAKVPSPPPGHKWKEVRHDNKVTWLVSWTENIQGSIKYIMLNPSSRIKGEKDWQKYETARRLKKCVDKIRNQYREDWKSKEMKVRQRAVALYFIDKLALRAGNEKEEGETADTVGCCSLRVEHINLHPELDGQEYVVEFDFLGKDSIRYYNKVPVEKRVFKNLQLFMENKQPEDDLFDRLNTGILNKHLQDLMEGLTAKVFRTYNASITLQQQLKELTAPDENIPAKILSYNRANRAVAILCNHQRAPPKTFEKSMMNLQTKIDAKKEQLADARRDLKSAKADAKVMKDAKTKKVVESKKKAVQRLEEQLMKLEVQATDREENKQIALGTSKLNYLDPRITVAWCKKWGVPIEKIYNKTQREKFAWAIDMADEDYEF
# HT-29 [7] = assay: Antiproliferative activity against human HT-29 cells assessed as inhibition of cell proliferation incubated for 24 to 72 hrs by MTT assay; type: functional, cell-based; settings: time 24-72 hrs, DDE = dose-dependent effect
# RKO [8] = assay: Induction of apoptosis in human RKO cells assessed as early apoptotic cells at 6 uM incubated for 24 hr by Annexin-V-FITC/PI staining based flow cytometry (Rvb= 7.27%); type: functional
# RKO [9] = assay: Induction of apoptosis in human RKO cells assessed as necrotic cells at 6 uM incubated for 24 hr by Annexin-V-FITC/PI staining based flow cytometry (Rvb= 0.30%); type: functional
# HT-29 [10] = assay: Induction of apoptosis in human HT-29 cells assessed as early apoptotic cells at 2 uM incubated for 24 hr by Annexin-V-FITC/PI staining based flow cytometry (Rvb=6.25%); type: functional
# RKO [11] = assay: Induction of apoptosis in human RKO cells assessed as late apoptotic cells at 9 uM incubated for 24 hr by Annexin-V-FITC/PI staining based flow cytometry (Rvb= 4.49%); type: functional
# [12] = biological target: Prostaglandin G/H synthase 2 (Homo sapiens) (UniProt P35354); assay: Inhibition of COX-2 (unknown origin) at 30 uM
# Prostaglandin G/H synthase 2 (Homo sapiens), sequence (P35354 whole entry, looked up): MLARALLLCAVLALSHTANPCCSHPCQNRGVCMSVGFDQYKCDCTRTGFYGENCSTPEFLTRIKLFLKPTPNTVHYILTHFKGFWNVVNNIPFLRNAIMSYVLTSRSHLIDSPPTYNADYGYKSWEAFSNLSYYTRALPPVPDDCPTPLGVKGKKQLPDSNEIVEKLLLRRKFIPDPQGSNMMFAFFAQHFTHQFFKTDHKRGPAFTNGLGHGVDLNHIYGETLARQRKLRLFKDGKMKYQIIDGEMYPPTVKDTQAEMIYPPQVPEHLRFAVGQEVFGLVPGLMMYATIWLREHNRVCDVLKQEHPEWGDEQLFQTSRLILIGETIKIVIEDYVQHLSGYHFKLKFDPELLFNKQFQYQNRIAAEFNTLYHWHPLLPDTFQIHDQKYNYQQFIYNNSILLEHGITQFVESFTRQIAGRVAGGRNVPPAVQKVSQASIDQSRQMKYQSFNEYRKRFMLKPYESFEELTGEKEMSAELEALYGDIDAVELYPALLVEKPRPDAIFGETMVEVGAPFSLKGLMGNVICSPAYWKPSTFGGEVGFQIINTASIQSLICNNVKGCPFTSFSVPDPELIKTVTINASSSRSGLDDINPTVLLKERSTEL
# HT-29 [13] = assay: Antitumor activity against human HT-29 cells xenografted in BALB/c mouse assessed as inhibition of tumor cell proliferation at 30 mg/kg, ip bid for 14 days by Ki67 staining based immunohistochemical analysis (Rvb= 16.61+/-1.05%); type: functional; set-up: scale not given: the % may be the effect or the level left; settings: time 14 day
# [14] = Tmax in Sprague-Dawley rat at 30 mg/kg, po and measured upto 12 hrs by LC-MS analysis; type: ADME, organism-based; settings: in vivo
# HT-29 [15] = assay: Antitumor activity against human HT-29 cells assessed as inhibition of cell proliferation incubated for 72 hrs by MTT assay; type: functional, cell-based; settings: HT-29, 72 h
# HT-29 [16] = assay: Antitumor activity against human HT-29 cells xenografted in BALB/c mouse assessed as inhibition of tumor cell proliferation at 15 mg/kg, ip bid for 14 days by Ki67 staining based immunohistochemical analysis (Rvb= 16.61+/-1.05%); type: functional; set-up: scale not given: the % may be the effect or the level left; settings: time 14 day
# HT-29 [17] = assay: Induction of apoptosis in human HT-29 cells assessed as late apoptotic cells at 2 uM incubated for 24 hr by Annexin-V-FITC/PI staining based flow cytometry (Rvb=8.60%); type: functional
# [18] = Water solubility of compound by HPLC analysis; type: physicochemical
# HCT-116 = assay: Antitumor activity against human HCT-116 cells assessed as inhibition of cell proliferation incubated for 72 hrs by MTT assay; type: functional, cell-based; settings: HCT-116, 72 h
# [19] = biological target: Prostaglandin G/H synthase 2 (Homo sapiens) (UniProt P35354); assay: Inhibition of COX-2 (unknown origin) at 3 uM
# RKO [20] = assay: Induction of apoptosis in human RKO cells assessed as increase in cleaved caspase-9 protein level at 3 to 9 uM incubated for 24 hrs by western blot analysis; type: functional, cell-based; settings: dose 3-9 µM
# RKO [21] = assay: Induction of apoptosis in human RKO cells assessed as viable cells at 6 uM incubated for 24 hr by Annexin-V-FITC/PI staining based flow cytometry (Rvb= 87.9%); type: functional; settings: read-out: Activity
# HT-29 [22] = assay: Induction of apoptosis in human HT-29 cells assessed as increase in Bax protein level at 2 to 8 uM incubated for 24 hrs by western blot analysis; type: functional, cell-based; settings: dose 2-8 µM
# RKO [23] = assay: Induction of apoptosis in human RKO cells assessed as necrotic cells at 3 uM incubated for 24 hr by Annexin-V-FITC/PI staining based flow cytometry (Rvb= 0.30%); type: functional
# HT-29 [24] = assay: Induction of apoptosis in human HT-29 cells assessed as necrotic cells at 4 uM incubated for 24 hr by Annexin-V-FITC/PI staining based flow cytometry (Rvb=1.67%); type: functional
# RKO [25] = assay: Inhibition of NF-kappaB signalling pathway in human RKO cells assessed as decrease in phosphorylated NF-kappaB p65 level at 3 to 9 uM incubated for 24 hrs by Western blot analysis; type: cell-based; settings: dose 3-9 µM
# RKO [26] = assay: Induction of apoptosis in human RKO cells assessed as increase in cytochrome c protein level at 3 to 9 uM incubated for 24 hrs by western blot analysis; type: functional, cell-based; settings: dose 3-9 µM
structure (smiles),measurement,setting,value
Cc1c(Cl)cccc1Nc1ccccc1C(=O)Nc1ccc(N2CCNCC2)cc1,IC50,RKO [1],2060 nM
same,Activity,HT-29 [2],Active
same,Activity,RKO [3],6.88%
same,Activity,HT-29 [4],3.96%
same,Activity,RKO [5],Active
same,inhibition,[6],53.2%
same,Activity,HT-29 [7],Dde
same,Activity,RKO [8],10.5%
same,Activity,RKO [9],0.73%
same,Activity,HT-29 [10],4.85%
same,Activity,RKO [11],11.2%
same,inhibition,[12],100%
same,Activity,HT-29 [13],3.27%
same,Tmax,[14],16.8 min
same,IC50,HT-29 [15],1480 nM
same,Activity,HT-29 [16],3.74%
same,Activity,HT-29 [17],11%
same,solubility,[18],32.3 µg/mL
same,IC50,HCT-116,8.42 µM
same,inhibition,[19],74.2%
same,Activity,RKO [20],Active
same,viability at 6 µM,RKO [21],81.9%
same,Activity,HT-29 [22],Active
same,Activity,RKO [23],0.46%
same,Activity,HT-29 [24],1.06%
same,inhibition,RKO [25],Active
same,Activity,RKO [26],Active
